pIC50: −log10 of the molar value.
Assays:
Test in all cases: radiometric 33PanQinase protein kinase assay
Type in all cases: biochemical
Conditions in all cases: 1 µM ATP
SAK = target: T1, SAK (Homo sapiens, UniProt O00444)
T1 construct: host or cells: Sf9 (baculovirus)

IGF1-R = target: T2, IGF1-R (Homo sapiens, UniProt P08069)
T2 construct: host or cells: Sf9 (baculovirus)

CDK2/CycA = target: T3, CDK2/CycA (Homo sapiens, UniProt P24941)
T3 construct: host or cells: Sf9 (baculovirus)

FLT3 = target: T4, FLT3 (Homo sapiens, UniProt P36888)
T4 construct: host or cells: Sf9 (baculovirus)
T4 sequence (P36888 27-993): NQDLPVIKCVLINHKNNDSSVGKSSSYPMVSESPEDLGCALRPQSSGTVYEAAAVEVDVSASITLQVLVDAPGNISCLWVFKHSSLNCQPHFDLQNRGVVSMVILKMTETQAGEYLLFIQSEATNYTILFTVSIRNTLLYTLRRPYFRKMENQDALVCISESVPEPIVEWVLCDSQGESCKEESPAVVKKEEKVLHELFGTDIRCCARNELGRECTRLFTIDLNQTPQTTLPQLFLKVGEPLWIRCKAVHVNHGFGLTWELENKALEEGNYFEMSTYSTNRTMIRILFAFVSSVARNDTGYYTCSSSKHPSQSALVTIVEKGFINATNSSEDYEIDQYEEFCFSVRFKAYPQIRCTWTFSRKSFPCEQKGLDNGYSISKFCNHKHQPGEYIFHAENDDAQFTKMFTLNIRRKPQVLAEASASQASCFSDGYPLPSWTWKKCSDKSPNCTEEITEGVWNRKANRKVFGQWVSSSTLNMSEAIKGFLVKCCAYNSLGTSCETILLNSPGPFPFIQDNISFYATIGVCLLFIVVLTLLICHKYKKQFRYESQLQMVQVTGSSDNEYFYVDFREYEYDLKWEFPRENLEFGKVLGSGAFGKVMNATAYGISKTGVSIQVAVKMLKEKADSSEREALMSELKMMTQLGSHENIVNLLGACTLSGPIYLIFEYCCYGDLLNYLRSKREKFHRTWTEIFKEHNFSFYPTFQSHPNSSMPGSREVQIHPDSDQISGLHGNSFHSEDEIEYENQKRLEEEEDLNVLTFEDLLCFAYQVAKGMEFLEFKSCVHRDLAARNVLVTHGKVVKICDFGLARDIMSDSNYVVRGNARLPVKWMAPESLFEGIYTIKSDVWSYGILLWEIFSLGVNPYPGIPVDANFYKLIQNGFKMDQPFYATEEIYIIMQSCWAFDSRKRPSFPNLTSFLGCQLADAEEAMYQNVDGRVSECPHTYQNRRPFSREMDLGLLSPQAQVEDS

PDGFR-beta = target: T5, PDGFR-beta (Homo sapiens, UniProt P09619)
T5 construct: host or cells: Sf9 (baculovirus)
T5 sequence (P09619 33-1106): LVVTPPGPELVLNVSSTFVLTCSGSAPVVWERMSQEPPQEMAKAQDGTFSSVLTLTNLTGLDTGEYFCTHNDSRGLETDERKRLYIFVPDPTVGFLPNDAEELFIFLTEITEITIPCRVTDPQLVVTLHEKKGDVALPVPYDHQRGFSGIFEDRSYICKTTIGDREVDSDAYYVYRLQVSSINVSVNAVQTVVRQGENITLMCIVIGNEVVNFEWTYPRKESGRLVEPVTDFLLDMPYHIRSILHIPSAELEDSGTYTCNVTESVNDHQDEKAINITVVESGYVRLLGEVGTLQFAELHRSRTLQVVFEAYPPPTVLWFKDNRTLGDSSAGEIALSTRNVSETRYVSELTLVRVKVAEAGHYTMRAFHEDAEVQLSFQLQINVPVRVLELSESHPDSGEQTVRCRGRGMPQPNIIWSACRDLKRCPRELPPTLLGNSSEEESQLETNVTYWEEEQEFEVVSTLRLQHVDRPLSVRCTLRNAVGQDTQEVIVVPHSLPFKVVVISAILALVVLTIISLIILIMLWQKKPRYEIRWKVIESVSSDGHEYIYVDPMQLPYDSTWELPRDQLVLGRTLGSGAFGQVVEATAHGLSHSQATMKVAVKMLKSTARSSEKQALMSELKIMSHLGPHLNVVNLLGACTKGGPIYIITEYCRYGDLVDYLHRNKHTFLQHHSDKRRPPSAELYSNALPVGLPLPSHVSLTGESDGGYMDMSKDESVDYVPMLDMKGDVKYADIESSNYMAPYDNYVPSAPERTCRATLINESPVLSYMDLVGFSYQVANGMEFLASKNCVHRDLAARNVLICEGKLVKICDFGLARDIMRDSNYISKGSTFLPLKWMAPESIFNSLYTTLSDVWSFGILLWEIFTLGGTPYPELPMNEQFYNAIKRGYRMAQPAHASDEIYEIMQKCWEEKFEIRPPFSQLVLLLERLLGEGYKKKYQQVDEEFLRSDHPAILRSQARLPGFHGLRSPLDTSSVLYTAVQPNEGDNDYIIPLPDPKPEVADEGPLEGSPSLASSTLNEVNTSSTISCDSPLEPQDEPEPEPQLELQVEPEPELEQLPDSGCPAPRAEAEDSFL

ARK5 = target: T6, ARK5 (Homo sapiens, UniProt O60285)
T6 construct: host or cells: Sf9 (baculovirus)
T6 sequence (O60285 whole entry): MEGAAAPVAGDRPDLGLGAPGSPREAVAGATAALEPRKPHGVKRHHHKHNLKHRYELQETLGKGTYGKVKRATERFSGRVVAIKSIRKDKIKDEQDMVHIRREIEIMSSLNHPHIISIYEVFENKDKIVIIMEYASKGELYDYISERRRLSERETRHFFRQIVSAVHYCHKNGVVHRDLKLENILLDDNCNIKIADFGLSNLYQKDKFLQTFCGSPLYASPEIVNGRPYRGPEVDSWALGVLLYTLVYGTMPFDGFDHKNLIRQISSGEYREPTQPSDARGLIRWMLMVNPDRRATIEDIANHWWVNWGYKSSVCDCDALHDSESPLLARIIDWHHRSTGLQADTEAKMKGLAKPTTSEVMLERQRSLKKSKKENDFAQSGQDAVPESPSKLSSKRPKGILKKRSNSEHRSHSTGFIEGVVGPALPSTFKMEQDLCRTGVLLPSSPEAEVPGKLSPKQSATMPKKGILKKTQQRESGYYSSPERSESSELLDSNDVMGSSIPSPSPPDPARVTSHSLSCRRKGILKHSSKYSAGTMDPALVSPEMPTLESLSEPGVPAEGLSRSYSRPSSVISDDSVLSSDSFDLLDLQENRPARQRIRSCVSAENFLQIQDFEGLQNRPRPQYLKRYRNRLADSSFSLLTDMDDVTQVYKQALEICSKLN

T2 sequence (P08069 31-1367): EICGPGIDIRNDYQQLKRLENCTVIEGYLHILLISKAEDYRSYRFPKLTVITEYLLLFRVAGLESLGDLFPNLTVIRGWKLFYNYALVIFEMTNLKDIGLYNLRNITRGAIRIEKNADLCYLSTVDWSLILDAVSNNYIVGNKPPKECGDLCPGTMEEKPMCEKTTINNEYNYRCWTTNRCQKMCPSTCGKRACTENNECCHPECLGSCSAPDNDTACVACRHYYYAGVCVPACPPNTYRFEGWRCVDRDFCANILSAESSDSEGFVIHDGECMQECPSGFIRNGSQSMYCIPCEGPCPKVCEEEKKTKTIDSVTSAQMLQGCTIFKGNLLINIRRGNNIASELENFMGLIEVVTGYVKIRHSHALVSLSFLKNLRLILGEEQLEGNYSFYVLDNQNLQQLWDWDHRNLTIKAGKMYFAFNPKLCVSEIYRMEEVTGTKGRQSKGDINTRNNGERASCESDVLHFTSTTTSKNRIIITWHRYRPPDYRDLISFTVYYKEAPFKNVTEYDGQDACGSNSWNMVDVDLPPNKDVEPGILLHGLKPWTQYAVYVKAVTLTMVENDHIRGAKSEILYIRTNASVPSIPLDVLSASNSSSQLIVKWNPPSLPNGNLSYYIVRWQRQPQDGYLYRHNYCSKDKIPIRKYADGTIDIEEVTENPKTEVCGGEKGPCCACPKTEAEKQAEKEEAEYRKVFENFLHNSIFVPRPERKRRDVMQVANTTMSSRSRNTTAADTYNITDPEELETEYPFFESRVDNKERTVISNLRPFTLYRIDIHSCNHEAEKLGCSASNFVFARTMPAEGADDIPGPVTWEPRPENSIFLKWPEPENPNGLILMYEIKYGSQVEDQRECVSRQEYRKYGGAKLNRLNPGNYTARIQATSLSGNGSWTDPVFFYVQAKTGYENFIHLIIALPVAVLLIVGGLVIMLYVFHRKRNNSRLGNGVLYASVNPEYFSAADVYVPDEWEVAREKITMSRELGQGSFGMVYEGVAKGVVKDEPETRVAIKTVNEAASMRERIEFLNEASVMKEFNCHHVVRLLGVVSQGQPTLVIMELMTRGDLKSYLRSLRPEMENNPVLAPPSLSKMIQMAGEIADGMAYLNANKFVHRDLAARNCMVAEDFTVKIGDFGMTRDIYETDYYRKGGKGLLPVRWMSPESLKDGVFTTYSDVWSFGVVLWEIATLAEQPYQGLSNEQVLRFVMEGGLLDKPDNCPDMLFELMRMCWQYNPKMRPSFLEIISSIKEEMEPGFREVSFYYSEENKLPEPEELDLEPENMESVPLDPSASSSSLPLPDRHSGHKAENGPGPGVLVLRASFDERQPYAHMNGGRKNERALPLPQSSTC
T1 sequence (O00444 whole entry): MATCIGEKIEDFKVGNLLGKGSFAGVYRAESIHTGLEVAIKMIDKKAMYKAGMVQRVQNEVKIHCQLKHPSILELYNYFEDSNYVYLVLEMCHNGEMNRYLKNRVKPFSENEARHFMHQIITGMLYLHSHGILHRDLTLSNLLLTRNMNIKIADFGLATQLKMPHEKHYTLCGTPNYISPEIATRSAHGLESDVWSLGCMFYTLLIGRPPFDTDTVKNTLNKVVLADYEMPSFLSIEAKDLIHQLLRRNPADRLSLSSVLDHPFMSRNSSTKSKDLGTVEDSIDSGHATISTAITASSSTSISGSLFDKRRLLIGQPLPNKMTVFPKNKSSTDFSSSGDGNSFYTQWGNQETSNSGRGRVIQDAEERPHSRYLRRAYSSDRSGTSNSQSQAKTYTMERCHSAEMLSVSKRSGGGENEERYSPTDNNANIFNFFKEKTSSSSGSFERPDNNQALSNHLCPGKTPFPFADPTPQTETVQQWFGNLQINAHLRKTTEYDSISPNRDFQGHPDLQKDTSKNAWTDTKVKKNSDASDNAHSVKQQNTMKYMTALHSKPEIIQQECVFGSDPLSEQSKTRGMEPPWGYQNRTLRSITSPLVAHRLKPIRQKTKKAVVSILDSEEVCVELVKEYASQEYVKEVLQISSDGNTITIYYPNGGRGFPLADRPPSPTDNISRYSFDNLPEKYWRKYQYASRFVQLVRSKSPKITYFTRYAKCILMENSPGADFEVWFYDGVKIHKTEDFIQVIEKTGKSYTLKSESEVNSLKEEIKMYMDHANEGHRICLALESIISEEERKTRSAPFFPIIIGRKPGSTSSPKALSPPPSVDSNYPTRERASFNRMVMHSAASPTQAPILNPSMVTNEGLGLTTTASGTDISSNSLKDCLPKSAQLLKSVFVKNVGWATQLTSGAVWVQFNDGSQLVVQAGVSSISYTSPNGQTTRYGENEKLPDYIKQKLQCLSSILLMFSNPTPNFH

O=C1CCCc2cc(-c3ccnc(Nc4ccccc4)n3)ccc2N1 [Compound 2a, 7-(2-Anilinopyrimidin-4-yl)-1,3,4,5-tetrahydro-2H-1-benzazepin-2-one]
pIC50 (SAK): < 4.00
pIC50 (IGF1-R): < 4.00
pIC50 (CDK2/CycA): 4.22
pIC50 (FLT3): 4.80
pIC50 (PDGFR-beta): 4.36
pIC50 (ARK5): < 4.00

— article PMC7998669, “7-(2-Anilinopyrimidin-4-yl)-1-benzazepin-2-ones Designed by a “Cut and Glue” Strategy Are Dual Aurora A/VEGF-R Kinase Inhibitors” (Molecules, 2021)
